Literature values in paper PMC4232468 (Nature chemical biology, 2014).

## Cc1ccc2c(=O)c3cccc(CC(=O)O)c3oc2c1C [DMXAA, 5,6-dimethylxanthenone-4-acetic acid]
Mouse STING (mSTING)
  activation of mouse STING: activates mouse STING (mSTING)
Human STING (hSTING)
  activation of human STING: not human STING (hSTING)
